Structures can show the parent of a compound that is named as a salt.
What was measured:
Conditions in all cases: exposure time: 72 h
E34 [1] = patient-derived glioblastoma stem cells of proneural subtype; experiment: surviving fraction (nuclei count normalised to DMSO); higher = more cells surviving (less toxic)
E31 [2] = patient-derived glioblastoma stem cells of proneural subtype; experiment: as above
FT3469 [3] = normal neural stem cell line; experiment: as above
E28 [4] = patient-derived glioblastoma stem cells of classical subtype; experiment: as above
E13 [5] = patient-derived glioblastoma stem cells of classical subtype; experiment: as above
E21 [6] = patient-derived glioblastoma stem cells of mesenchymal subtype; experiment: as above
E57 [7] = patient-derived glioblastoma stem cells of mesenchymal subtype; experiment: as above
E34 [8] = experiment: phenotypic distance (Euclidean, principal components) from DMSO controls (arbitrary units); higher = stronger morphological change
E31 [9] = experiment: as above
FT3469 [10] = experiment: as above
E28 [11] = experiment: as above
E13 [12] = experiment: as above
E21 [13] = experiment: as above
E57 [14] = experiment: as above
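Throughout, for phenotypic distance (Euclidean, principal components) from DMSO controls: cell Painting imaging in 384-well plates, CellProfiler features reduced to at least 20 principal components, Euclidean distance versus same-plate DMSO vehicle wells (0.1% v/v), median over six images per well.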
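Throughout, for surviving fraction (nuclei count normalised to DMSO): nuclei counted by high-content imaging of Hoechst-stained cells in laminin-coated 384-well plates, relative to 0.1% DMSO vehicle wells, with staurosporine as cell-death control.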

N=C(N)NCc1cccc(I)c1 [Iobenguane sulfate]
Conditions	phenotypic distance	surviving fraction
E13 [5], 4.1 nM	–	0.873
E13 [5], 12.3 nM	–	0.869
E13 [5], 37 nM	–	0.916
E13 [5], 111.1 nM	–	0.908
E13 [5], 333.3 nM	–	0.989
E13 [5], 1000 nM	–	0.922
E13 [5], 3000 nM	–	1.08
E13 [12], 4.1 nM	0.573	–
E13 [12], 12.3 nM	0.965	–
E13 [12], 37 nM	0.696	–
E13 [12], 111.1 nM	0.835	–
E13 [12], 333.3 nM	0.643	–
E13 [12], 1000 nM	0.541	–
E13 [12], 3000 nM	0.796	–
E21 [6], 4.1 nM	–	0.982
E21 [6], 12.3 nM	–	0.855
E21 [6], 37 nM	–	0.854
E21 [6], 111.1 nM	–	0.921
E21 [6], 333.3 nM	–	0.972
E21 [6], 1000 nM	–	1.05
E21 [6], 3000 nM	–	0.879
E21 [13], 4.1 nM	0.441	–
E21 [13], 12.3 nM	0.695	–
E21 [13], 37 nM	1.24	–
E21 [13], 111.1 nM	0.881	–
E21 [13], 333.3 nM	0.867	–
E21 [13], 1000 nM	0.81	–
E21 [13], 3000 nM	0.765	–
E28 [4], 4.1 nM	–	0.875
E28 [4], 12.3 nM	–	1.03
E28 [4], 37 nM	–	0.94
E28 [4], 111.1 nM	–	1.05
E28 [4], 333.3 nM	–	1.04
E28 [4], 1000 nM	–	1.05
E28 [4], 3000 nM	–	0.936
E28 [11], 4.1 nM	0.591	–
E28 [11], 12.3 nM	0.866	–
E28 [11], 37 nM	0.64	–
E28 [11], 111.1 nM	0.721	–
E28 [11], 333.3 nM	0.496	–
E28 [11], 1000 nM	0.786	–
E28 [11], 3000 nM	0.814	–
E31 [2], 4.1 nM	–	0.961
E31 [2], 12.3 nM	–	0.997
E31 [2], 37 nM	–	0.864
E31 [2], 111.1 nM	–	1.15
E31 [2], 333.3 nM	–	1.07
E31 [2], 1000 nM	–	1.13
E31 [2], 3000 nM	–	0.964
E31 [9], 4.1 nM	0.547	–
E31 [9], 12.3 nM	0.684	–
E31 [9], 37 nM	0.567	–
E31 [9], 111.1 nM	0.714	–
E31 [9], 333.3 nM	0.802	–
E31 [9], 1000 nM	0.469	–
E31 [9], 3000 nM	0.734	–
E34 [1], 4.1 nM	–	0.935
E34 [1], 12.3 nM	–	1.1
E34 [1], 37 nM	–	1.02
E34 [1], 111.1 nM	–	0.975
E34 [1], 333.3 nM	–	1.08
E34 [1], 1000 nM	–	1.1
E34 [1], 3000 nM	–	1.25
E34 [8], 4.1 nM	0.386	–
E34 [8], 12.3 nM	0.879	–
E34 [8], 37 nM	0.823	–
E34 [8], 111.1 nM	0.771	–
E34 [8], 333.3 nM	1.44	–
E34 [8], 1000 nM	0.934	–
E34 [8], 3000 nM	0.966	–
E57 [7], 4.1 nM	–	1.03
E57 [7], 12.3 nM	–	0.978
E57 [7], 37 nM	–	0.973
E57 [7], 111.1 nM	–	1.03
E57 [7], 333.3 nM	–	0.992
E57 [7], 1000 nM	–	1.01
E57 [7], 3000 nM	–	1.04
E57 [14], 4.1 nM	0.755	–
E57 [14], 12.3 nM	0.843	–
E57 [14], 37 nM	0.712	–
E57 [14], 111.1 nM	0.905	–
E57 [14], 333.3 nM	0.728	–
E57 [14], 1000 nM	0.452	–
E57 [14], 3000 nM	0.547	–
FT3469 [3], 4.1 nM	–	1.08
FT3469 [3], 12.3 nM	–	1.12
FT3469 [3], 37 nM	–	0.963
FT3469 [3], 111.1 nM	–	1.09
FT3469 [3], 333.3 nM	–	1.1
FT3469 [3], 1000 nM	–	0.904
FT3469 [3], 3000 nM	–	1.14
FT3469 [10], 4.1 nM	0.354	–
FT3469 [10], 12.3 nM	3.38	–
FT3469 [10], 37 nM	0.885	–
FT3469 [10], 111.1 nM	1.06	–
FT3469 [10], 333.3 nM	1.08	–
FT3469 [10], 1000 nM	0.871	–
FT3469 [10], 3000 nM	0.634	–
